Patent US8277824B2, “Solubilization of cyclohexane-based carboxamide derivatives for use as sensates in consumer products” (The Procter & Gamble Company, priority 2008, dated 2012)
Read-outs that look alike come from different tables or passages of the source.

Columns and labels:
[1] = concentration level where the cooling effect could be clearly recognized; Emberger and Hopp 1987; cited from earlier work
Cooling effect (sensory) = assay type: in vivo; details: neoisomer prepared in Procter & Gamble laboratories
Excerpt: Many of the compounds above including menthol have relatively low potency and the duration of the cooling effect is typically short-lived. Thus, it is necessary to include fairly high levels of such compounds when formulating products, which increases cost. In addition, many of these compounds are relatively high cost ingredients since they are expensive to manufacture on an industrial scale. Therefore, compounds with high potency and long lasting cooling effect are highly sought that will require only small amounts for incorporation in a variety of consumer products to provide high impact and long-lasting effect. Such potent and long lasting coolant compounds have recently been described for example in WO 2005/049553A1 to Givaudan including ρ-menthane carboxamides substituted at the amide N-position with an aryl moiety bearing certain substituents. Examples include N-(4-cyanomethylphenyl)-ρ-menthanecarboxamide; N-(4-sulfamoylphenyl)-ρ-menthanecarboxamide; N-(4-cyanophenyl)-ρ-menthanecarboxamide; N-(4-acetylphenyl)-ρ-menthanecarboxamide, N-(4-hydroxymethylphenyl)-ρ-menthanecarboxamide and N-(3-hydroxy-4-methoxyphenyl)-ρ-menthanecarboxamide. […]

[2] = demonstrated in commonly assigned U.S. Application No. 61/003,863; cited from earlier work
[3] = Experimental solubility limit of G-180 in liquid solvents (visual clarity); assay type: physicochemical; details: 25° C.
Description: The solubility of G-180 in various solvents was determined as follows. Aliquot one to twenty grams of a target solvent into a vial or flask. Weigh out G-180 to provide a concentration of 25%. […] Visually inspect for clarity. If the solution is not completely clear, add solvent, calculate new concentration of G-180 and repeat the solubilization energy and check for clarity. Once a level of clarity is achieved, repeat the process but increase the G-180 concentration by 10% until clarity is diminished. Once these cross points of clarity are achieved, this is reported as the experimental solubility limit of G-180 in the respective solvent.

In the case of `CC(C)[C@H]1CC[C@H](C)C[C@H]1O` [l-neomenthol], the cooling threshold [1] is listed as “about 3,000 ppb”.
With `CC(C)[C@@H]1CC[C@@H](C)C[C@@H]1C(=O)Nc1ccc(CC#N)cc1` [neoisomer, N-[4-(cyanomethyl)phenyl]-(1S,2S,5R)-2-isopropyl-5-methylcyclohexanecarboxamide] the cooling effect (Cooling effect (sensory)) was “potent and long-lasting cooling effect”.
For `CC(C)[C@@H]1CC[C@@H](C)C[C@H]1O` [L-menthol], the cooling threshold [1] is listed as “about 800 ppb”.
In the case of `CC(C)[C@@H]1CC[C@@H](C)C[C@H]1C(=O)Nc1ccc(CC#N)cc1` [G180, N-[4-(cyanomethyl)phenyl]-(1R,2S,5R)-2-isopropyl-5-methylcyclohexanecarboxamide], the cooling effect [2] is listed as “intense and long-lasting cooling effect”, the “G180 Experimental % Solubility” value ([3]; solvent 2,3-dimethyl Pyrazine) is listed as 20.4% and the “G180 Experimental % Solubility” value ([3]; solvent 2,5-dimethyl Pyrazine) is listed as 20.0%. The “G180 Experimental % Solubility” value ([3]; solvent Benzaldehyde) was 16.7%, the “G180 Experimental % Solubility” value ([3]; solvent Benzyl Salicylate) was 14.7% and the “G180 Experimental % Solubility” value ([3]; solvent Benzyl alcohol) was 21.2%. The “G180 Experimental % Solubility” value ([3]; solvent Cuminylaldehyde) was 20.0%, the “G180 Experimental % Solubility” value ([3]; solvent Isoamyl propionate) was 13.2% and the “G180 Experimental % Solubility” value ([3]; solvent Menthone) was 15.4%. The “G180 Experimental % Solubility” value ([3]; solvent Neryl acetate) was 7.4%, the “G180 Experimental % Solubility” value ([3]; solvent Para-Tolualdehyde) was 15.9% and the “G180 Experimental % Solubility” value ([3]; solvent Triacetin) was 4.4%. For the same compound, the “G180 Experimental % Solubility” value ([3]; solvent Water) was less than 0.1% and the “G180 Experimental % Solubility” value ([3]; solvent α-Amyl Cinnamic Aldehyde) was 12.1%.
For `CC(C)[C@@H]1CC[C@@H](C)C[C@@H]1O` [d-neomenthol], the cooling threshold [1] is given as “about 25,000 ppb”.
